According to US11376224B2, “System for delivery of FK506 for enhancing nerve regeneration” (THE HOSPITAL FOR SICK CHILDREN, priority 2016, dated 2022):

Experiment: FK506 tissue concentrations (organ exposure) by mass spectrometry after drug delivery system implantation
Assay type: in vivo, Sprague-Dawley rats
Procedure: FK506 was detectable within the proximal injured sciatic nerve, DRGs (L4, L5), the entire spinal cord, and the muscles surrounding the nerve repair site, decreasing in concentration over time. FK506 content within the tissues was determined using mass spectrometry. (Mean±standard deviation, n=4).
Thirty adult female Sprague-Dawley rats were randomized into five groups (n=6). The experimental group included rats treated with fibrin gel loaded with FK506 by incorporating 10 microliters solubilized FK506 in acetonitrile (2 milligrams per milliliter), 200 micrograms solid FK506 particulates, or 5 milligrams of FK506 containing microspheres into the thrombin solution before it was mixed with fibrinogen to form a gel.
During the procedure, the sciatic nerve was exposed and the main branches were dissected. The tibial (TIB) nerve was transected 5 millimeters distal to its bifurcation from the common peroneal (CP) nerve and sural nerves with fine microsurgical scissors. The proximal TIB nerve stump was cross-sutured to the distal stump of a cut CP nerve. In the groups receiving the fibrin gel based drug delivery system, the nerve suture site was surrounded by two 40 microliters of the fibrin gels (containing applicable components for each group) formed by pipetting the fluid fibrin mixture onto a Parafilm sheet as semi-rectangular drops (˜5×5 millimeters) and placing the drops above and below the repair site. By gently opposing the drops, the delivery system was secured around the nerve. Three weeks after repair, the number of neurons that regenerated their axons were determined using retrograde labeling 7 millimeter distal to the repair site. Nerve samples at the location of retrograde labeling were collected for histomorphometric analysis. Using mass spectrometry, FK506 tissue concentrations were analyzed at the site of the injury, in sciatic nerve, dorsal root ganglia (DRGs), spinal cord, brain, heart, liver, kidney, and plasma at 7, 14, and 28 days post repair.

[1] = first week of drug release in vivo (7 days)

C=CC[C@@H]1/C=C(\C)C[C@H](C)C[C@H](OC)[C@H]2O[C@@](O)(C(=O)C(=O)N3CCCC[C@H]3C(=O)O[C@H](/C(C)=C/[C@@H]3CC[C@@H](O)[C@H](OC)C3)[C@H](C)[C@@H](O)CC1=O)[C@H](C)C[C@@H]2OC [FK506]
FK506 levels in sciatic nerve, gluteal muscles, spinal cord, kidney (at 14 days): barely detectable levels
FK506 within the DRGs (L4, L5) (at 14 days): accumulation
FK506 within the DRGs (L4, L5) (at 28 days): undetectable
FK506 levels in sciatic nerve, gluteal muscles, spinal cord, kidney (by 28 days): undetectable levels
FK506 in contralateral sciatic nerve, contralateral gluteal muscles, contralateral L4-L5 DRGs (entire period of the treatment): did not contain any FK506
FK506 in plasma, brain, liver, or heart (entire study period): not detectable
FK506 in entire spinal cord [1]: highest level
FK506 in gluteal muscles surrounding the nerve [1]: detected
FK506 in proximal injured sciatic nerve [1]: detected
